# Test results from patent US10428064B2, “Fused-tricyclic inhibitors of KRAS and methods of use thereof” (Araxes Pharma LLC, priority 2015, dated 2019).
# Biological target: T1, KRAS G12C 1-169, his-tagged protein, GDP-loaded (Homo sapiens, UniProt P01116, G12C)
# T1 construct: KRAS G12C 1-169, his-tagged protein, GDP-loaded
# Assay: Biochemical assay: covalent modification of KRAS G12C protein measured by mass spectrometry (RapidFire/TOF or Q-Exactive)
# Settings: covalent binding to KRAS G12C
# Description: Test compounds are prepared as 10 mM stock solutions in DMSO (Fisher cat # BP-231-100). KRAS G12C 1-169, his-tagged protein, GDP-loaded is diluted to […] in buffer (20 mM Hepes, 150 mM NaCl, 1 mM MgCl2). Compounds are tested for activity as follows:
# Compounds are diluted to 50× final test concentration in DMSO in 96-well storage plates. Compound stock solutions are vortexed before use and observed carefully for any sign of precipitation. […] The plate is then resealed with aluminum seal and stored on dry ice until analyzed as described below.
# The above described assays are analyzed by mass spectrometry according to one of the following two procedures: […]
# After another 30 minute equilibration time, a blank batch (i.e., buffer) is run to ensure equipment is operating properly. […] The method is then run and masses of each individual well recorded. […]
# The masses and peak intensities of KRAS G12C protein species are measured using a Dionex RSLCnano system (Thermo Scientific) connected to a Q Exactive Plus mass spectrometer (Thermo Scientific). […]
# The mass spectrometer is operated in profile mode at a resolution of 17500, 5 microscans, using 50 msec max injection time and an AGC target of 1e6, and a full mass range from 800-1850 m/z is recorded. […]
# T1 sequence (P01116 1-169 isoform P01116-2 G12C): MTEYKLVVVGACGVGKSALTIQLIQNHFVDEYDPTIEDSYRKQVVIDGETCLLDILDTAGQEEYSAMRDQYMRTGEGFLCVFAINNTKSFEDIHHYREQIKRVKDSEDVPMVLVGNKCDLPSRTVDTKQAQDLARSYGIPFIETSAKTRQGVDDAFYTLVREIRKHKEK
row,SMILES,Binding %
1,"C=CC(=O)N1CCN(c2c3c(nc4c(F)c(-c5c(O)cccc5F)c(Cl)cc24)NC(=O)NC3)CC1 [Compound 1, 5-(4-acryloylpiperazin-1-yl)-7-chloro-9-fluoro-8-(2-fluoro-6-hydroxyphenyl)-3,4-dihydropyrimido [4,5-b]quinolin-2(1H)-one]",++ (++ indicates binding activity greater than 50%)
2,"C=CC(=O)N1CCN(c2c3c(nc4c(F)c(-c5c(O)cccc5F)c(Cl)cc24)CCN(C)C3=O)CC1 [Compound 19, 10-(4-acryloylpiperazin-1-yl)-8-chloro-6-fluoro-7-(2-fluoro-6-hydroxyphenyl)-2-methyl-3,4-dihydrobenzo[b] [1,6]naphthyridin-1(2H)-one]",+ (+ indicates binding activity up to 50%)
